Results taken from patent US11318134B2, “Benzamide compounds” (priority 2018, dated 2022).
Read-outs that look alike come from different tables or passages of the source.

Tests used:
Bcl-2 [1] = molecular target: T1, Bcl-2 (Homo sapiens (Human), UniProt P10415); assay: Bcl-2 protein family binding assay (Bcl2scan platform), Bcl-2; conditions: BIM peptide ligand, 11-point dilution, read-out: Bc1-2 Kd (nm)
Experimental: (§1) E. coli were grown to log-phase and infected with T7 phage from a frozen stock (multiplicity of infection=0.4) and incubated with shaking at 32° C. until lysis (90-150 minutes). The lysates were centrifuged (5,000×g) and filtered (0.2 μm) to remove cell debris. […] The liganded beads were blocked with excess biotin and washed with blocking buffer (SeaBlock (Pierce), 1% BSA, 0.05% Tween 20, 1 mM DTT) to remove unbound ligand and to reduce non-specific phage binding. […] Test compounds were prepared as 100× stocks in 100% DMSO. Kds were determined using an 11-point 3-fold compound dilution series with one DMSO control point. […] The compounds were then diluted directly into the assays such that the final concentration of DMSO was 0.9%. All reactions performed in polypropylene 384-well plates. Each was a final volume of 0.02 ml. […] The BCL2 concentration in the eluates was measured by qPCR. Binding constants (Kds) were calculated with a standard dose-response curve using the Hill equation:
(§2) [formula] The Hill Slope was set to −1. Curves were fitted using a non-linear least square fit with the Levenberg-Marquardt algorithm.

Bcl-XL [2] = molecular target: T2, Bcl-XL (Homo sapiens (Human), UniProt Q07817); assay: Bcl-2 protein family binding assay (Bcl2scan platform), Bcl-XL; conditions: BIM peptide ligand, 11-point dilution, read-out: Bc1-XL Kd (nm)
Experimental: as §1, §2

Bcl-2 [3] = molecular target: T1, Bcl-2; assay: Bcl-2 HTRF assay (FAM-Bak peptide); assay type: binding; conditions: read-out: Bc1-2 IC50
Bcl-XL [4] = molecular target: T2, Bcl-XL; assay: Bcl-XL HTRF assay (FAM-Bad peptide); assay type: binding; conditions: read-out: Bc1-XL IC50
RS4;11 cells = assay: RS4;11 cell proliferation assay (CellTiter-Glo); assay type: cell-based; conditions: Homo sapiens, RS4-11, 48 h, read-out: RS4;11 (nM), CTG IC50
Experimental: (§3) Cell proliferation was measured using the CellTiter-Glo® Luminescent Cell Viability Assay. The assay involved the addition of a single reagent (CellTiter-Glo® Reagent) directly to cells cultured in serum-supplemented medium.
(§4) Each compound evaluated was prepared as a DMSO stock solution (10 mM). Compounds were tested in duplicate on each plate, with a 10-point serial dilution curve (1:3 dilution). Compound treatment (1.0 μL) was added from the compound dilution plate to the cell plate. The highest compound concentration was 10 μM (final), with a 0.1% final DMSO concentration. Plates were then incubated at 37° C., 5% CO2. After 48 h of compound treatment for RS4;11 or 72 h for NCI-H1963, cell plates were equilibrated at rt for approximately 30 mins. An equi-volume amount of CellTiter-Glo® Reagent (40 μL) was added to each well. […] Luminescence was recorded using a Envision plate reader according to CellTiter-Glo protocol. IC50 of each compound was calculated using GraphPad Prism by nonlinear regression analysis.

NCI-H1963 cells = assay: NCI-H1963 cell proliferation assay (CellTiter-Glo); assay type: cell-based; conditions: Homo sapiens, NCI-H1963, 72 h, read-out: H1963 (nM), CTG IC50
Experimental: as §3, §4

[5] = HTRF, 4 nM Bcl-2, 100 nM FAM-Bak peptide
[6] = HTRF, 3 nM Bcl-XL, 40 nM FAM-Bad peptide

T2 sequence (Q07817 whole entry): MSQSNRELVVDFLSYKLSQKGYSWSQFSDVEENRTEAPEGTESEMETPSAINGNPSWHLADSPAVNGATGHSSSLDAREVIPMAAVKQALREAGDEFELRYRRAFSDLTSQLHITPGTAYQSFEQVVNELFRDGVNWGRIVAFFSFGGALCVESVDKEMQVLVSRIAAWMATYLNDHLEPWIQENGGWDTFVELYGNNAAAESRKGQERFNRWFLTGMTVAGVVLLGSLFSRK
T1 sequence (P10415 whole entry): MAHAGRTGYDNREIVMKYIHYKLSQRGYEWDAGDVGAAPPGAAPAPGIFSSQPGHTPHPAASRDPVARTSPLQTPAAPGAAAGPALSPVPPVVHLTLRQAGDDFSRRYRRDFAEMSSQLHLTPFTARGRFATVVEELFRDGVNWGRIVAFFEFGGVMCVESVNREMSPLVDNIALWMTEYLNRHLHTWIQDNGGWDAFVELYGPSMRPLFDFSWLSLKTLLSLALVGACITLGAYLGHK

Row | Compound | Kd (Bcl-2 [1]) | Kd (Bcl-XL [2]) | IC50 (Bcl-2 [3]; [5]) | IC50 (Bcl-XL [4]; [6]) | IC50 (RS4;11 cells) | IC50 (Bcl-2 [3]) | IC50 (Bcl-XL [4]) | IC50 (NCI-H1963 cells)
1 | CC1(C)CCC(CN2CCN(c3ccc(C(=O)NS(=O)(=O)c4ccc(NCC5(F)CCOCC5)c([N+](=O)[O-])c4)c(Oc4cnc5[nH]ccc5c4)c3)CC2)=C(C23CC(C)(C2)C3)C1 [Example 15, 2-(1H-pyrrolo[2,3-b]pyridin-5-yloxy)-4-(4-((4,4-dimethyl-2-(3-methylbicyclo[1.1.1]pentan-1-yl)cyclohex-1-enyl)methyl)piperazin-1-yl)-N-(4-((4-fluorotetrahydro-2H-pyran-4-yl)methylamino)-3-nitrophenylsulfonyl)benzamide] | < 10 nM | > 100 nM | ≤ 10 nM | ≥ 100 nM | < 100 nM | – | – | –
2 | CC1(C)CCC(CN2CCN(c3ccc(C(=O)NS(=O)(=O)c4ccc(NC[C@H]5CC[C@](C)(O)CC5)c([N+](=O)[O-])c4)c(Oc4cnc5[nH]ccc5c4)c3)CC2)=C(C23CC(C)(C2)C3)C1 [Example 20, 2-(1H-pyrrolo[2,3-b]pyridin-5-yloxy)-4-(4-((4,4-dimethyl-2-(3-methylbicyclo[1.1.1]pentan-1-yl)cyclohex-1-enyl)methyl)piperazin-1-yl)-N-(4-(((1r,4r)-4-hydroxy-4-methylcyclohexyl)methylamino)-3-nitrophenylsulfonyl)benzamide] | < 10 nM | > 100 nM | ≤ 10 nM | ≥ 100 nM | < 100 nM | – | – | –
3 | CC1(C)CCC(CN2CCN(c3ccc(C(=O)NS(=O)(=O)c4ccc(NC[C@H]5CC[C@](C)(O)CC5)c([N+](=O)[O-])c4)c(Oc4cnc5[nH]ccc5c4)c3)CC2)=C(C23CC(C(F)F)(C2)C3)C1 [Example 34, 2-((1H-pyrrolo[2,3-b]pyridin-5-yl)oxy)-4-(4-((2-(3-(difluoromethyl)bicyclo[1.1.1]pentan-1l-yl)-4,4-dimethylcyclohex-1-en-1-yl)methyl)piperazin-1-yl)-N-((4-((((1r,4r)-4-hydroxy-4-methylcyclohexyl)methyl)amino)-3-nitrophenyl)sulfonyl)benzamide] | < 10 nM | > 100 nM | ≤ 10 nM | 10 to 100 nM | < 100 nM | – | – | –
4 | CC1(C)CCC(C23CC(C)(C2)C3)=C(CN2CCN(c3ccc(C(=O)NS(=O)(=O)c4ccc(N[C@H](CCN5CCC(O)CC5)CSc5ccccc5)c(S(=O)(=O)C(F)(F)F)c4)cc3)CC2)C1 [Example 48, (R)-4-(4-((5,5-dimethyl-2-(3-methylbicyclo[1.1.1]pentan-1-yl)cyclohex-1-enyl)methyl)piperazin-1-yl)-N-(4-(4-(4-hydroxypiperidin-1-yl)-1-(phenylthio)butan-2-ylamino)-3-(trifluoromethylsulfonyl)phenylsulfonyl)benzamide] | 10 to 100 nM | 10 to 100 nM | – | – | 100 to 1000 nM | < 10 nM | < 10 nM | –
5 | CC1(C)CCC(CN2CCN(c3ccc(C(=O)NS(=O)(=O)c4ccc(N[C@H](CCN5CCOCC5)CSc5ccccc5)c(S(=O)(=O)C(F)(F)F)c4)cc3)CC2)=C(C23CC(C(F)F)(C2)C3)C1 [Example 55, (R)-4-(4-((2-(3-(difluoromethyl)bicyclo[1.1.1]pentan-1-yl)-4,4-dimethylcyclohex-1-en-1-yl)methyl)piperazin-1-yl)-N-((4-((4-morpholino-1-(phenylthio)butan-2-yl)amino)-3-((trifluoromethyl)sulfonyl)phenyl)sulfonyl)benzamide] | – | – | ≤ 10 nM | ≤ 10 nM | 100 to 1000 nM | – | – | –
6 | CC1(C)CCC(CN2CCN(c3ccc(C(=O)NS(=O)(=O)c4ccc(N[C@H](CCN5CCOCC5)CSc5ccccc5)c([N+](=O)[O-])c4)cc3)CC2)=C(C23CC(C(F)F)(C2)C3)C1 [Example 58, (R)-4-(4-((2-(3-(difluoromethyl)bicyclo[1.1.1]pentan-1-yl)-4,4-dimethylcyclohex-1-en-1-yl)methyl)piperazin-1-yl)-N-((4-((4-morpholino-1-(phenylthio)butan-2-yl)amino)-3-nitrophenyl)sulfonyl)benzamide] | – | – | ≤ 10 nM | ≤ 10 nM | 100 to 1000 nM | – | – | –
7 | CN(C)CC[C@H](CSc1ccccc1)Nc1ccc(S(=O)(=O)NC(=O)c2ccc(N3CCN(CC4=C(C56CC(C)(C5)C6)CC(C)(C)CC4)CC3)cc2)cc1S(=O)(=O)C(F)(F)F [Example 59, (R)-4-(4-((4,4-dimethyl-2-(3-methylbicyclo[1.1.1]pentan-1-yl)cyclohex-1-en-1-yl)methyl)piperazin-1-yl)-N-((4-((4-(dimethylamino)-1-(phenylthio)butan-2-yl)amino)-3-((trifluoromethyl)sulfonyl)phenyl)sulfonyl)benzamide] | – | – | ≤ 10 nM | ≤ 10 nM | 100 to 1000 nM | – | – | 500 to 1000 nM
8 | CN(CCO)CC[C@H](CSc1ccccc1)Nc1ccc(S(=O)(=O)NC(=O)c2ccc(N3CCN(CC4=C(C56CC(C(F)F)(C5)C6)CC(C)(C)CC4)CC3)cc2)cc1S(=O)(=O)C(F)(F)F [Example 60, (R)-4-(4-((2-(3-(difluoromethyl)bicyclo[1.1.1]pentan-1-yl)-4,4-dimethylcyclohex-1-en-1-yl)methyl)piperazin-1-yl)-N-((4-((4-((2-hydroxyethyl)(methyl)amino)-1-(phenylthio)butan-2-yl)amino)-3-((trifluoromethyl)sulfonyl)phenyl)sulfonyl)benzamide] | – | – | ≤ 10 nM | ≤ 10 nM | < 100 nM | – | – | 500 to 1000 nM
9 | CC1(C)CCC(CN2CCN(c3ccc(C(=O)NS(=O)(=O)c4ccc(N[C@H](CCN5CCC(O)CC5)CSc5ccccc5)c(S(=O)(=O)C(F)(F)F)c4)cc3)CC2)=C(C23CC(C(F)F)(C2)C3)C1 [Example 61, (R)-4-(4-((2-(3-(Difluoromethyl)bicyclo[1.1.1]pentan-1-yl)-4,4-dimethylcyclohex-1-en-1-yl)methyl)piperazin-1-yl)-N-((4-((4-(4-hydroxypiperidin-1-yl)-1-(phenylthio)butan-2-yl)amino)-3-((trifluoromethyl)sulfonyl)phenyl)sulfonyl)benzamide] | – | – | ≤ 10 nM | ≤ 10 nM | < 100 nM | – | – | < 500 nM
10 | O=C(NS(=O)(=O)c1ccc(N[C@H](CCN2CCC(O)CC2)CSc2ccccc2)c(S(=O)(=O)C(F)(F)F)c1)c1ccc(N2CCN(CC3=C(C45CC(C(F)F)(C4)C5)CC4(CCC4)CC3)CC2)cc1 [Example 67, (R)-4-(4-((6-(3-(difluoromethyl)bicyclo[1.1.1]pentan-1-yl)spiro[3.5]non-6-en-7-yl)methyl)piperazin-1-yl)-N-((4-((4-(4-hydroxypiperidin-1-yl)-1-(phenylthio)butan-2-yl)amino)-3-((trifluoromethyl)sulfonyl)phenyl)sulfonyl)benzamide] | – | – | ≤ 10 nM | ≤ 10 nM | 100 to 1000 nM | – | – | –
11 | CC1(C)CCC(CN2CCN(c3ccc(C(=O)NS(=O)(=O)c4ccc(N[C@H](CCN5CCN(CCO)CC5)CSc5ccccc5)c(S(=O)(=O)C(F)(F)F)c4)cc3)CC2)=C(C23CC(C(F)F)(C2)C3)C1 [Example 69, (R)-4-(4-((2-(3-(difluoromethyl)bicyclo[1.1.1]pentan-1-yl)-4,4-dimethylcyclohex-1-en-1-yl)methyl)piperazin-1-yl)-N-((4-((4-(4-(2-hydroxyethyl)piperazin-1-yl)-1-(phenylthio)butan-2-yl)amino)-3-((trifluoromethyl)sulfonyl)phenyl)sulfonyl)benzamide] | – | – | ≤ 10 nM | ≤ 10 nM | – | – | – | 500 to 1000 nM
